Source: patent US8420605B2, “Hydrogel compositions” (The University of Strathclyde, priority 2005, dated 2013)
Peptide text beside a SMILES is read from it. * marks the point of attachment. Fmoc = O=C(OCC1c2ccccc2-c2ccccc21)*

How the values were obtained:
[1] = Preparation of self-assembled peptide hydrogels by pH adjustment (gel formation); type: physicochemical
Protocol: Fmoc peptides (from BACHEM Ltd) were weighed out into 4 ml glass vials. 2 ml purified water was added followed by sonication for 30-60 seconds. 0.5M NaOH solution was added in 50 μl droplets until a clear solution was formed. 0.1M HCl was added to the solution by stepwise addition of 50 μl followed by mixing using a vortex. pH values were estimated by transferring a spatula tip of hydrogel onto universal indicator paper.
Self-assembled scaffolds were prepared by first suspending the Fmoc-dipeptide in purified water. Upon increase of the pH by addition of concentrated NaOH (thus de-protonating the carboxylic acid group) to a value of >8, a clear solution was obtained. To this solution, concentrated hydrochloric acid was added drop wise until the pH of the solution became 7, at which point a clear, self-supporting gel was formed.
Table 3 below identifies various peptide derivatives (incorporating an aromatic stacking ligand) and mixtures thereof that formed gels at a pH of 6-8 at the indicated concentrations: […]

Human dermal fibroblasts = assay: Cell phenotype and size comparison in RGD/RGE-containing hydrogels (inverted optic microscope); type: cell-based; settings: after 24 hours, 3D culture, 1 mM/L RGD or RGE peptide with Fmoc-Phe-Phe-OH
Protocol: Fmoc-SEQ. ID. NO. 1-OH (Fmoc-SEQ. ID. NO. 1) adhesion motifs were introduced to tackle the issue of un-spreaded cells in Fmoc-Phe-Phe-OH gels therefore to induce spreading and focal adhesion of dermal fibroblasts in these self-assembled peptide hydrogels. Fmoc-Phe-Phe-OH and Fmoc-Phe-Phe-OH+Fmoc-SEQ. ID. NO. 2-OH (Fmoc-SEQ. ID. NO. 2) combination were set as comparisons.
0.0014 grams of Fmoc-SEQ. ID. NO. 1or Fmoc-SEQ. ID. NO. 2(1 mM/L in later hydrogels), were weighed and mixed with 0.0107 grams Fmoc-Phe-Phe-OH respectively into glass vials, and 0.0107 grams Fmoc-Phe-Phe-OH alone was weighed as well. The above peptide and peptide mixtures were sterilized for 30 minutes by an ultraviolet light exposure with bottles of distilled water, filtered NaOH (Sodium Hydroxide, 0.5 M/L), filtered HCl (Hydrochloric Acid, 0.5 M/L), and relevant apparatus (spatulas, pipettes, Vortex). 2 mL of the sterile distilled water was then added into each glass vial of Fmoc-Phe-Phe-OH, Fmoc-Phe-Phe-OH+Fmoc-SEQ. ID. NO. 1, and Fmoc-Phe-Phe-OH+Fmoc-SEQ. ID. NO. 2, and the mixtures were vortexed for a few seconds to create suspensions. […] The basic peptide solutions (pH around 10) were finally neutralized to pH 7 by dropwise addition of HCl and pH values were monitored by a pH meter with a micro-probe. […]

[2] = test system: human adult dermal fibroblast; assay: 3D culture inside peptide gels, cell shape; type: cell-based; settings: 10 mM/L gel, cells seeded inside the gel
Protocol: With 10 mM/L Fmoc-Phe-Phe-OH self-assembled hydrogels, human adult dermal fibroblast were also seeded 3 dimensionally (3D culture) inside the peptide gels. […] Despite proliferation, whether ECM components (proteins and saccharides) were synthesized and secreted by these cells is another way to justify cells' reaction to the material. However, viability of the cells is of necessity to maintain a steady ECM secretion or to restore proliferation after possible cell spreading at later time points.

bovine chondrocytes = assay: Culture of chondrocytes on/in hydrogel scaffold (proliferation and retention of phenotype); type: cell-based; settings: cell culture of up to 7 days
Protocol: Bovine chondrocytes were isolated from cartilage of the proximal side of the metacarpalphalangeal joint, washed in PBS and incubated overnight in Dulbeccos Modified Eagles Medium (DMEM) supplemented with 10% foetal calf serum, 100 units ml^−1 penicillin/streptomycin and 0.85 mM ascorbic acid. The cartilage was finely chopped and incubated with pronase type E (700 units ml^−1) (BDH Ltd., Poole, UK) in medium for 2 h followed by collagenase type 1a (300 units ml^−1) (SIGMA-ALDRICH Co. Ltd., Poole, UK) in medium for 2 h. The cell suspension was centrifuged at 1500 rpm for 5 min to pellet the cells. The cells were washed twice in medium and seeded directly onto the peptide scaffolds (and tissue culture plastic control) or encapsulated within the scaffolds during the gelation stage at a cell density of 5×10^5 ml^−1 in medium. The cultures were maintained in an incubator at 37° C. with a humidified atmosphere of 5% CO2 for up to 4 weeks. Chondrocytes were used up to passage 5.
Finally, all three gels prepared (ie. entries 1, 2 and 3) were tested for their ability to support proliferation and retention of phenotype of bovine chondrocytes. […]
The rounded cell shape is the typical phenotype for chondrocytes. […] Two-photon fluorescence microscopy was used to observe samples stained with DAPI, a fluorescent nucleic acid stain that enables visualisation of cell nuclei.

O=C(N[C@@H](Cc1ccccc1)C(=O)N[C@@H](Cc1ccccc1)C(=O)O)OCC1c2ccccc2-c2ccccc21 [Entry 1, Fmoc-Phe-Phe-OH] (Fmoc-Phe-Phe-OH)
Gel? ([1]; Component 1 10 mM/L, pH 7): ✓ | Concentration ([1]; Properties of self-assembled Fmoc-dipeptides (Table 1), concentration range of gel): 2900 to 30000 µM | pH ([1]; Properties of self-assembled Fmoc-dipeptides (Table 1), pH range of gel): 4-8 | pH ([1]; pH at which the gel formed at the indicated concentrations (Table 3)): 7 | average cell size (Human dermal fibroblasts): around 20 microns | cell shape in 3D culture [2]: oval to round cell shape remained for a long term | retention of morphological phenotype and proliferation of chondrocytes (bovine chondrocytes): cell morphological phenotype is retained
